From patent publication US20230111132A1, “STABILIZATION OF MHC COMPLEXES” (The Regents of the University of California, priority 2019, published 2023)

What was measured:
HLA-B*57:01 [1] = molecular target: T1, HLA-B*57:01 (Homo sapiens, UniProt P01889, D201E/D98Y/E176V/E187L/E204Q/E69M/E70A/G107R/I90N/K202T/L105A/L119I/N104I/N87E/Q89R/Q94S/R106L/R155S/R180L/R86G/S101N/S121V/S35A/S48A/T118I/V36M/Y140S/Y91M); assay: MHC refolding ELISA (capture ELISA of refolded MHC-peptide complex); format: biochemical; set-up: Denatured heavy chain (final concentration 1 μM)
Protocol: FIG. 13. Primary assay: refolding ELISA.
Refolding reactions were set up in 96-well plates on ice by the successive addition of the following: • 1. Refolding Buffer (400 mM Arg-HCl, 100 mM Tris 8.0, 5 mM glutathione (GSH), 0.5 mM glutathione disulfide (GSSG), 1× cOmplete protease inhibitor cocktail); • 2. Beta-2-microglobulin (final concentration 2 μM). • 3. Peptide (final concentration 40 μM). • 4. Denatured heavy chain (final concentration 1 μM).
[…] Meanwhile, 96-well ELISA plate (Coming 3361) was treated with W6/32 (5 μg/mL) at 4° C. overnight. The plate was washed with PBS (2×200 μL), then blocked with 375 μL 3% BSA/PBS at 23° C. for 1 h. After washing the plate with PBST (3×200 μL), 90 μL 1% BSA/PBS was added to each well.
Detection of refolding was performed as follows: • 1. Add 10 μL of the refolding mixture to each well of the ELISA plate. • 2. Incubate the plate with shaking at 23° C. for 1 h. • 3. Wash plate with 1% BSA/PBS (3×200 μL). • 4. Add 50 μL BBM.1-HRP (1 μg/mL in 1% BSA/PBS) and incubate the plate with shaking at 23° C. for 1 h. • 5. Wash plate with PBST (3×200 μL). • 6. Wash plate with PBS (1×100 μL). • 7. Add 50 μL TMB Ultra and incubate the plate with shaking for 5 min. • 8. Stop the reaction by addition of 20 μL 2.0 M sulfuric acid. • Read absorbance at 450 nm within 10 min. […]

HLA-B*57:01 [2] = molecular target: T1, HLA-B*57:01; details: PepV HSITYLLPV; known; cited from earlier work

| stabilization of the presentation of mutant K-Ras peptides by HLA-B*57:01 (HLA-B*57:01 [1]; peptide panel VVVGAVGVGG/A/V/I/K/W and HSITYLLPV (FIG. 8, FIG. 9)) | SMILES | MHC-peptide complex formation after 72 h (HLA-B*57:01 [1]; 40 μM G12V 7-16, 1% DMSO, 10° C., 72 hours) | stabilization of PepV in HLA-B*57:01 (HLA-B*57:01 [2]) |
| --- | --- | --- | --- |
| – | CNS(=O)(=O)c1cc(Nc2nccc(N(C)c3ccc4nn(C)c(C)c4c3)n2)ccc1C [09-045B] | may be less susceptible to this instability | – |
| induced stabilization | Nc1nc(NC2CC2)c2ncn([C@H]3C=C[C@@H](CO)C3)c2n1 [abacavir] | – | stabilized |
